Test results from patent publication US9000190B2, “Amide compound or salt thereof, biofilm inhibitor, biofilm remover and disinfectant containing the same” (The University of Tokyo, priority 2006, dated 2015).

Tests used:
[1] = system: S. aureus ATCC 29213; conditions: Publicly-known data; cited from earlier work
[2] = system: Pseudomonas aeruginosa (gfp expression PAO1-strain); experiment: Evaluation test for biofilm formation inhibition effect against Pseudomonas aeruginosa (flow cell system); assay type: cell-based; conditions: flow 200 μL per minute, observed after 1, 48, 60, 72, 84 hours
Method: With the flow cell system shown in FIG. 1, an inhibitory effect against biofilm formation by Pseudomonas aeruginosa was evaluated for each of the amide compounds produced in Production Examples 1, 3, 5, 6 and 7 (Compounds 1a-1, 1b-1, 1c-1, 1c-2, 1d-1), and for each of Comparative Compounds (Comparative Example) 1 to 3 denoted by the following formulas.
A culture medium bottle (1), a peristaltic pump (2), a glass cell (4) and a waste fluid bottle (5) are connected via a silicon tube (6) so that a culture medium (9) is supplied to the glass cell (4) from the culture medium bottle (1) using the peristaltic pump (2). The system includes an air removal section (3) between the peristaltic pump (2) and a turncock (7a), for removing the entrained air. All instruments in the flow cell system are sterilized using gamma-rays or an autoclave.
As specifically described later, the inhibitory effect against biofilm formation of each of the amide compounds is examined in the following manner. Bacteria are cultured in a glass cell (4) to grow a biofilm on the inner wall of the cell, and a test liquid containing one of the amide compounds is applied to the biofilm. Then the state of the biofilm is observed to evaluate the inhibitory effect against biofilm formation of the compound using a fluorescence confocal microscope (Leica TCS SP2: product of Leica).
The bacteria was prepared by inserting a pTdk-LVAgfp plasmid into a Pseudomonas aeruginosa PAO1-strain using the electroportion method so that the Pseudomonas aeruginosa PAO1-strain is transformed to express Green Fluorescent Protein (hereinafter referred to as “gfp expression PAO1-strain”) (see Teresa R. et al., Applied and Environmental Microbiology, April 2001, p. 1865-1873).
A 30 mM glucose-containing FAB culture medium was used for preincubation, and a 0.3 mM glucose-containing FAB culture medium was used for main cultivation.
The glucose-containing FAB culture medium was prepared by adding 200 μg/mL of carbenicillin to an aqueous solution containing 30 mM glucose or 0.3 mM glucose, 15 mM ammonium sulfate, 33.7 mM disodium hydrogenphosphate dihydrate, 22.1 mM potassium dihydrogen phosphate, 51.7 mM sodium chloride, 0.47 mM magnesium chloride, 0.08 mM calcium chloride and the following 0.1% trace metal solution.
An aqueous solution containing 1.16 mM calcium sulfate dihydrate, 0.72 mM iron sulfate heptahydrate, 0.08 mM manganous sulfate monohydrate, 0.08 mM copper sulfate pentahydrate, 0.07 mM zinc sulfate heptahydrate, 0.04 mM cobalt sulfate heptahydrate, 0.04 mM […], and 0.08 mM boric acid.
A gfp expression PAO1-strain was inoculated in a 30 mM glucose-containing FAB culture medium, and was subjected to shake culture at 37° C. in an isothermal tank overnight. The obtained overnight culture liquid was diluted by a 30 mM glucose-containing FAB culture medium to OD590=0.1.
(§1) The test liquid was prepared by dissolving 100-250 μM of each of the Compounds 1a-1, 1b-1, 1c-1, 1c-2, or 1d-1 according to Production Examples 1, 3 and 5 to 7 and 100-250 μM of Comparative Compounds 1 to 3 as comparative examples in dimethyl sulfoxide (DMSO), and supplying the resulting DMSO solutions to a 0.3 mM glucose-containing FAB culture medium so that the concentration of each compound becomes 0.1%(v/v).
(§2) A DMSO not containing the compound was used as a control test liquid.
The flow cell system was filled with hydrous ethanol of 70 volume %, and was allowed to stand for at least 12 hours to sterilize the system. Then, air having been filtrated by a membrane filter (8a) was supplied into the flow cell system using the peristaltic pump (2) to dry the system. Thereafter, the system was filled with a 0.3 mM glucose-containing FAB culture medium. 500 μL of a bacterial suspension was injected into the glass cell (4) from the upper surface, and the glass cell was sealed by turning off the three-way turncock (7a,7b). The cell as such was allowed to stand for 1 hour at room temperature. […]

[3] = system: Pseudomonas aeruginosa (gfp expression PAO1-strain); experiment: Evaluation test for biofilm removal effect with respect to Pseudomonas aeruginosa (flow cell system); assay type: cell-based; conditions: test liquid 100 μM; for state of biofilm removal (disappearance of deposited biofilm, fluorescence confocal microscope): observed after 3, 4, 5, 6, 7 and 10 days; for time course of biofilm during removal test: up to 10 days
Method: With the flow cell system of FIG. 1, a removal effect against biofilms formed by Pseudomonas aeruginosa was evaluated for each of the amide compounds produced in Production Examples 1, 3, 5, and 6 (Compounds 1a-1, 1b-1, 1c-1, 1c-2), and for Comparative Compounds 1 to 3 as comparative examples.
The evaluation for biofilm removal effect was performed as follows. After cultivation of bacterias in the glass cell (4) of the flow cell system to grow a biofilm in the inner cell wall, a test liquid containing one of the amide compounds was applied to the biofilm.
As with Experiment Example 1, a gfp expression PAO1-strain was used.
At for the culture medium, the glucose-containing FAB culture medium, trace metal solution, and bacterial suspension as those of Experiment Example 1 were used.
as §1, with “dissolving 100” for “dissolving 100-250”, “1b-1, 1c-1 and 1c-2” for “1b-1, 1c-1, 1c-2, or 1d-1”, “1, 3, 5” for “1, 3”, “and 6” for “and 5 to 7”, “and 100” for “and 100-250”, “examples denoted by the following formula” for “examples”
as §2
The flow cell system was filled with hydrous ethanol (70 volume %), and was allowed to stand for at least 12 hours to sterilize the system. Then, air having been filtrated by a membrane filter (8a) was supplied into the flow cell system using the peristaltic pump (2) to dry the system. Thereafter, the system was filled with a 0.3 mM glucose-containing FAB culture medium. 500 μL of the bacterial suspension was injected into the glass cell (4) from the upper surface, and the glass cell was sealed by turning off the three-way turncock (7a,7b). The cell as such was allowed to stand for an hour at room temperature.
After the static culture, two of the three-way turncocks (7a,7b) were turned on, so as to supply each test liquid and control test liquid at a flow rate of 200 μL per minute. With a fluorescence confocal microscope, the process of biofilm formation (deposition) by the Pseudomonas aeruginosa (gfp expression PAO1-strain) adhered to the inner wall of the glass cell was observed three-dimensionally from above to observe changes over time (after 3 days, 4 days, 5 days, 6 days, 7 days, and 10 days). Note that the test liquid and the control test liquid were replaced with fresh liquids every 36 hours.

[4] = system: Porphyromonas gingivalis 381-strain; experiment: Evaluation test for biofilm formation inhibition effect against periodontitis pathogenic bacteria (flow cell, HA disks, turbidity); assay type: cell-based; conditions: for inhibition of biofilm formation caused by periodontitis pathogenic bacteria (conclusion in words) / Mean OD Value: 100 μM; for inhibition of biofilm formation caused by periodontitis pathogenic bacteria (conclusion in words): 14 days; for Mean OD Value: turbidity of suspended biofilm at 550 nm
Method: As with Experiment Example 1, using the flow cell system of FIG. 1, an inhibitory effect against biofilm formation by periodontitis pathogenic bacteria was evaluated for each of the amide compounds produced in Production Examples 1, 3, 5, and 6 (Compounds 1a-1, 1b-1, 1c-1, 1c-2).
Periodontitis pathogenic bacteria Porphyromonas gingivalis 381-strain (clinical strain) was used.
A GAM culture medium containing hemin 5 μg/L and menadione 1 μg/L was used.
The 381-strain was inoculated in the GAM culture medium, and cultivated until stationary phase (OD550=1.8). Then the culture medium was diluted 20-fold by a fresh GAM culture medium containing the above-mentioned substances.
The test liquid was prepared by dissolving 100 μM of each of the Compounds 1a-1, 1b-1, 1c-1, or 1c-2 according to Production Examples 1, 3, 5 and 6 and 100 μM of Comparative Compounds 1 and 2 as comparative examples in dimethyl sulfoxide (DMSO), and supplying the resulting DMSO solutions to the above-mentioned bacterial suspensions so that the concentration of each compound becomes 0.1%(v/v).
as §2
The glass cell (4) of the flow cell system (see FIG. 1) was replaced with a stainless cell (3×7×120 mm), and 10 hydroxyapatite (HA) disks (6 mm in diameter, 1 mm in thickness) were placed in the cell. The HA disks had been subjected to salivary treatment overnight. Each of the test liquids and control test liquids was circulated in the system at a flow rate of 8 mL/min for 14 days. Note that the test liquids and the control test liquids were replaced with fresh liquids every two days.
After the cultivation, the HA disks were dipped in 300 μL of sterile distilled water, and treated by supersonic wave for 30 minutes at 4° C. The biofilms formed in the HA disks were peeled off and suspended in distilled water. Then, 100 μL of the suspension liquid was measured for the turbidity with an absorptiometer (C07500 colorimeter, product of Funakoshi) (measurement wavelength=550 nm).
A mean OD was found based on the resulting OD values, excluding the minimum and maximum values. Also, a mean value of the turbidities for the Control Test Liquids was found in the same manner as the control mean OD value. A biofilm formation inhibition rate (Inhibition Rate) was found by the following formula. Biofilm Formation Inhibition Rate (%)={(Mean OD Value)/(Mean Comparison OD Value)}×100

[5] = system: P. aeruginosa ATCC 27853; conditions: Publicly-known data; cited from earlier work
[6] = system: E. coli ATCC 25922; conditions: Publicly-known data; cited from earlier work

| SMILES | state of biofilm formation (fluorescence confocal microscope) compared with control test liquid ([2]; test liquid 100 μM) | state of biofilm removal (disappearance of deposited biofilm, fluorescence confocal microscope) [3] | inhibition of biofilm formation caused by periodontitis pathogenic bacteria (conclusion in words) [4] | also measured |
| --- | --- | --- | --- | --- |
| CC[C@H]1OC(=O)[C@H](C)[C@@H](O[C@H]2C[C@@](C)(OC)[C@@H](O)[C@H](C)O2)[C@H](C)[C@@H](O[C@@H]2O[C@H](C)C[C@H](N(C)C)[C@H]2O)[C@](C)(O)C[C@@H](C)CN(C)[C@H](C)[C@@H](O)[C@]1(C)O [AZM, Azithromycin] | – | – | – | MIC (μg/mL) from M100-S16 [1]: 0.5 to 2 µg/mL |
| CCCCCCCCCCCC(=O)NN1CCCCC1 [Compound 1d-1, N-(piperidine-1-yl) dodecanoyl amide] | such biofilm formation was not observed | – | – | – |
| CCCCCCCCCCCC(=O)NC1CCNCC1 [Compound 1b-1, N-(piperidine-4-yl) dodecanoyl amide] | – | the gradual disappearance of the deposited biofilm with time was observed | capable of inhibiting biofilm formation | state of biofilm formation (fluorescence confocal microscope) compared with control test liquid ([2]; test liquid 250 μM): such biofilm formation was not observed |
| CCCCCCCCCC(O)CC(=O)NN1CCCC1 (stereo not shown) [Compound 1c-2, N-(pyrrolidin-1-yl)-3-hydroxy dodecanoyl amide] | such biofilm formation was not observed | the gradual disappearance of the deposited biofilm with time was observed | capable of inhibiting biofilm formation | time course of biofilm during removal test [3]: the biofilm was first reduced and then increased again after a six-day cultivation, before it reduced again until it disappeared |
| CCCCCCCCCC(=O)CC(=O)Nc1ccccc1O [Comparative Compound 1, reference compound] | the huge, thick biofilm was observed as in the control test | – | – | Mean OD Value ([4]; HA disks, circulated 14 days): 0.629 |
| NC[C@H]1O[C@H](O[C@H]2[C@H](O)[C@@H](O[C@H]3O[C@H](CO)[C@@H](O)[C@H](N)[C@H]3O)[C@H](N)C[C@@H]2N)[C@H](N)C[C@@H]1O [TOB, Tobramycin] | – | – | – | MIC (μg/mL) from M100-S16 [5]: 0.25 to 1 µg/mL; MIC (μg/mL) from M100-S16 [1]: 0.12 to 1 µg/mL; MIC (μg/mL) from M100-S16 [6]: 0.25 to 1 µg/mL |
| CCCCCCCCCCCC(=O)NC1CCNC1 (stereo not shown) [Compound 1a-1, N-(pyrrolidin-3-yl) dodecanoyl amide] | – | the gradual disappearance of the deposited biofilm with time was observed | capable of inhibiting biofilm formation | state of biofilm formation (fluorescence confocal microscope) compared with control test liquid ([2]; test liquid 250 μM): such biofilm formation was not observed |
| CCCC(=O)NN1CCCCC1 [Comparative Compound 3, reference compound] | the huge, thick biofilm was observed as in the control test | – | – | – |
| CCCCCCCCCCCC(=O)NN1CCCC1 [Compound 1c-1, N-(pyrrolidin-1-yl) dodecanoyl amide] | such biofilm formation was not observed | the gradual disappearance of the deposited biofilm with time was observed | capable of inhibiting biofilm formation | time course of biofilm during removal test [3]: the biofilm was first reduced and then increased again after a six-day cultivation, before it reduced again until it disappeared |
| CCCC(=O)NN1CCCC1 [Comparative Compound 2, reference compound] | the huge, thick biofilm was observed as in the control test | – | – | Mean OD Value ([4]; HA disks, circulated 14 days): 0.719; inhibition at 100 µM ([4]; Porphyromonas gingivalis, 381STRAIN, 336 h, HA disks, circulated 14 days, relative to control test liquid (DMSO), read-out: Biofilm Formation Inhibition Rate (%)): -49% |
| CC(C)(O/N=C(\C(=O)N[C@@H]1C(=O)N2C(C(=O)[O-])=C(C[n+]3ccccc3)CS[C@H]12)c1csc(N)n1)C(=O)O [CAZ, Ceftazidime] | – | – | – | MIC (μg/mL) from M100-S16 [5]: 1 to 4 µg/mL; MIC (μg/mL) from M100-S16 [1]: 4 to 16 µg/mL; MIC (μg/mL) from M100-S16 [6]: 0.06 to 0.5 µg/mL |
